Results reported in ChEMBL document CHEMBL5576039, “Novel naphthoquinone-1H-1,2,3-triazole hybrids: Design, synthesis and evaluation as inductors of ROS-mediated apoptosis in the MCF-7 cells” (Bioorg Med Chem, 2024).
Activity calls are given as the source filed them. The calls are words filed in the database; no cut-off is given here.

Assays:
[1] = test system: MCF7; experiment: Cytotoxicity against human MCF7 cells assessed as reduction in cell viability at 50 uM incubated for 24 hrs by MTT assay; format: functional, cell-based
[2] = test system: MCF7; experiment: Cytotoxicity against human MCF7 cells assessed as reduction in cell viability at 12 uM incubated for 24 hrs by MTT assay; format: functional, cell-based
[3] = test system: MCF7; experiment: Cytotoxicity against human MCF7 cells assessed as reduction in cell viability at 6 uM incubated for 24 hrs by MTT assay; format: functional, cell-based
[4] = test system: MCF-10A; experiment: Cytotoxicity against human MCF-10A cells assessed as reduction in cell viability incubated for 24 hrs by MTT assay; format: toxicity, cell-based
[5] = test system: MCF7; experiment: Cytotoxicity against human MCF7 cells assessed as reduction in cell viability incubated for 24 hrs by MTT assay; format: functional, cell-based; conditions: MCF7, 24 h
[6] = test system: MDA-MB-231; experiment: Cytotoxicity against human MDA-MB-231 cells assessed as reduction in cell viability incubated for 24 hrs by MTT assay; format: functional, cell-based; conditions: MDA-MB-231, 24 h
[7] = test system: MCF7; experiment: Induction of apoptotic cell death in human MCF7 cells incubated for 12 to 24 hrs by AnnexinV/7-AAD staining based flow cytometry; format: functional; conditions: dose 6-12 µM, time 12-24 hrs
[8] = test system: MCF7; experiment: Induction of apoptotic cell death in human MCF7 cells at 6 to 12 uM by AnnexinV/7-AAD staining based flow cytometry; format: functional; conditions: dose 6-12 µM, time 12-24 hrs, TDE = time-dependent effect
[9] = test system: MCF7; experiment: Cytotoxicity against human MCF7 cells assessed as reduction in cell viability incubated for 2 to 24 hrs by MTT assay; format: functional, cell-based; conditions: dose 6-12 µM, time 2-24 hrs
[10] = test system: MCF7; experiment: Cytotoxicity against human MCF7 cells assessed as reduction in cell viability at 6 to 12 uM by MTT assay; format: functional, cell-based; conditions: dose 6-12 µM, time 2-24 hrs, TDE = time-dependent effect
[11] = test system: MCF7; experiment: Induction of cell death in human MCF7 cells assessed as proportion of live cells at 6 uM incubated for 12 hrs by AnnexinV/7-AAD staining based flow cytometry; format: functional
[12] = test system: MCF7; experiment: Induction of cell death in human MCF7 cells assessed as proportion of live cells at 12 uM incubated for 12 hrs by AnnexinV/7-AAD staining based flow cytometry; format: functional
[13] = test system: MCF7; experiment: Induction of cell death in human MCF7 cells assessed as reduction in number of live cells at 12 uM incubated for 4 hrs by AnnexinV/7-AAD staining based flow cytometry; format: functional
[14] = test system: MDA-MB-231; experiment: Induction of apoptotic cell death in human MDA-MB-231 cells assessed as increase in AnnexinV-positive cells at 3 to 12 uM incubated for 2 hrs by AnnexinV/7-AAD staining based flow cytometry; format: functional; conditions: dose 3-12 µM
[15] = test system: MCF-10A; experiment: Induction of apoptotic cell death in human MCF-10A cells assessed as increase in AnnexinV-positive cells at 12 uM incubated for 2 hrs by AnnexinV/7-AAD staining based flow cytometry; format: toxicity
[16] = test system: MCF7; experiment: Increase in ROS production in human MCF7 cells assessed as increase in ROS-positive cells at 6 to 12 uM incubated for 2 hrs by DCFDA/7-AAD staining based flow cytometry; format: functional, cell-based; conditions: dose 6-12 µM
[17] = test system: MDA-MB-231; experiment: Increase in ROS production in human MDA-MB-231 cells assessed as increase in ROS-positive cells at 6 to 12 uM incubated for 2 to 24 hrs by DCFDA/7-AAD staining based flow cytometry; format: functional, cell-based; conditions: dose 6-12 µM, time 2-24 hrs
[18] = test system: MCF7; experiment: Activation of AMPK in human MCF7 cells assessed as increase in AMPK phosphorylation at Thr172 residue at 12 uM incubated for 2 hrs by western blot analysis; format: cell-based; conditions: filed as activator
[19] = test system: MCF7; experiment: Activation of AMPK in human MCF7 cells assessed as increase in ACC phosphorylation at Ser79 residue at 12 uM incubated for 2 hrs by western blot analysis; format: cell-based; conditions: filed as activator
[20] = test system: MDA-MB-231; experiment: Activation of AMPK in human MDA-MB-231 cells assessed as increase in AMPK phosphorylation at Thr172 residue at 12 uM incubated for 2 hrs by western blot analysis; format: cell-based; conditions: filed as activator
[21] = test system: MDA-MB-231; experiment: Activation of AMPK in human MDA-MB-231 cells assessed as increase in ACC phosphorylation at Ser79 residue at 12 uM incubated for 2 hrs by western blot analysis; format: cell-based; conditions: filed as activator
[22] = test system: MCF7; experiment: Activation of AMPK in human MCF7 cells assessed as reduction in mTOR phosphorylation at Ser2448 residue at 6 to 12 uM incubated for 2 hrs by western blot analysis; format: cell-based; conditions: filed as activator, dose 6-12 µM
[23] = test system: MDA-MB-231; experiment: Activation of AMPK in human MDA-MB-231 cells assessed as reduction in p70S6K phosphorylation at Thr421/Ser424 residue at 6 to 12 uM incubated for 2 hrs by western blot analysis; format: cell-based; conditions: filed as activator, dose 6-12 µM
[24] = test system: MCF7; experiment: Activation of AMPK in human MCF7 cells assessed as reduction in S6 phosphorylation at Ser235/236 residue at 6 to 12 uM incubated for 2 hrs by western blot analysis; format: cell-based; conditions: filed as activator, dose 6-12 µM
[25] = test system: MDA-MB-231; experiment: Activation of AMPK in human MDA-MB-231 cells assessed as reduction in S6 phosphorylation at Ser235/236 residue at 6 to 12 uM incubated for 2 hrs by western blot analysis; format: cell-based; conditions: filed as activator, dose 6-12 µM
[26] = test system: MCF7; experiment: Induction of apoptotic cell death in human MCF7 cells assessed as increase in AnnexinV-positive cells at 3 uM incubated for 2 hrs by AnnexinV/7-AAD staining based flow cytometry; format: functional
[27] = test system: MCF7; experiment: Increase in ROS production in human MCF7 cells assessed as increase in ROS-positive cells at 6 to 12 uM incubated for 4 hrs by DCFDA/7-AAD staining based flow cytometry; format: functional, cell-based; conditions: dose 6-12 µM
[28] = test system: MCF-10A; experiment: Induction of apoptotic cell death in human MCF-10A cells assessed as increase in AnnexinV-positive cells at 1 uM incubated for 2 hrs by AnnexinV/7-AAD staining based flow cytometry; format: toxicity
[29] = test system: MCF7; experiment: Induction of apoptotic cell death in human MCF7 cells assessed as increase in AnnexinV-positive cells at 1 uM incubated for 2 hrs by AnnexinV/7-AAD staining based flow cytometry; format: functional
[30] = test system: MDA-MB-231; experiment: Induction of apoptotic cell death in human MDA-MB-231 cells assessed as increase in AnnexinV-positive cells at 1 uM incubated for 2 hrs by AnnexinV/7-AAD staining based flow cytometry; format: functional

## CC(C)=CCC1=C(OCc2cn(C(C3=C(C)C(=O)c4ccccc4C3=O)c3ccc(F)cc3)nn2)C(=O)c2ccccc2C1=O (stereo unspecified)
[1]
  Activity: inactive

## CC(C)=CCC1=C(OCc2cn(C(C)C3=C(C)C(=O)c4ccccc4C3=O)nn2)C(=O)c2ccccc2C1=O (stereo unspecified)
[1]
  Activity: inactive

## CC(C)=CCC1=C(OCc2cn(CC3=C(C)C(=O)c4ccccc4C3=O)nn2)C(=O)c2ccccc2C1=O
[1]
  Activity: inactive

## CC1=C(C(C)n2cc(CNC3=CC(=O)c4ccccc4C3=O)nn2)C(=O)c2ccccc2C1=O (stereo unspecified)
[1]
  Activity: inactive

## CC(C)=CC1=C(OCc2cn(C(C3=C(C)C(=O)c4ccccc4C3=O)c3ccccc3)nn2)C(=O)c2ccccc2C1=O (stereo unspecified)
[2]
  Activity: Active

## CC(C)=CC1=C(OCc2cn(C(C3=C(C)C(=O)c4ccccc4C3=O)c3ccc(Cl)cc3)nn2)C(=O)c2ccccc2C1=O (stereo unspecified)
[1]
  Activity: inactive

## CC(C)=CC1=C(OCc2cn(C(C)C3=C(C)C(=O)c4ccccc4C3=O)nn2)C(=O)c2ccccc2C1=O (stereo unspecified)
[2]
  Activity: Active
[3]
  Activity: Active
[4]
  Activity: Non-Toxic
[5]
  IC50: 4.3 µM
[6]
  IC50: 9.2 µM
[7]
  Activity: Dose-Dependent Effect
[8]
  Activity: Tde
[9]
  Activity: Dose-Dependent Effect
[10]
  Activity: Tde
[11]
  Activity: <75%
[12]
  Activity: <95%
[13]
  Activity: Active
[14]
  Activity: inactive
[15]
  Activity: Toxic
[16]
  Activity: Active
[17]
  Activity: inactive
[18]
  Activity: Active
[19]
  Activity: Active
[20]
  Activity: Active
[21]
  Activity: Active
[22]
  Activity: Active
[23]
  Activity: Active
[24]
  Activity: Active
[25]
  Activity: Active

## CC(C)(C)c1ccc(-n2cc(CNC3=CC(=O)c4ccccc4C3=O)nn2)cc1
[5]
  IC50: 21.2 µM

## CC(C)=CC1=C(OCc2cn(CC3=C(C)C(=O)c4ccccc4C3=O)nn2)C(=O)c2ccccc2C1=O
[2]
  Activity: Active
[3]
  Activity: Active
[4]
  Activity: Non-Toxic
[5]
  IC50: 4.4 µM
[6]
  IC50: 11.1 µM
[7]
  Activity: Dose-Dependent Effect
[8]
  Activity: Tde
[9]
  Activity: Dose-Dependent Effect
[10]
  Activity: Tde
[11]
  Activity: <70%
[12]
  Activity: <90%
[13]
  Activity: Active
[14]
  Activity: inactive
[15]
  Activity: Non-Toxic
[26]
  Activity: Active
[16]
  Activity: Active
[27]
  Activity: inactive
[17]
  Activity: inactive
[18]
  Activity: Active
[19]
  Activity: Active
[20]
  Activity: Active
[21]
  Activity: Active
[22]
  Activity: Active
[23]
  Activity: Active
[24]
  Activity: Active
[25]
  Activity: Active

## COc1cccc2c1C(=O)c1c(O)c3c(c(O)c1C2=O)C[C@@](O)(C(=O)CO)C[C@@H]3O[C@H]1C[C@H](N)[C@H](O)[C@H](C)O1 [DOXORUBICIN]
[28]
  Activity: Toxic
[29]
  Activity: inactive
[30]
  Activity: Active

## CC1=C(C(c2ccc(Cl)cc2)n2cc(CNC3=CC(=O)c4ccccc4C3=O)nn2)C(=O)c2ccccc2C1=O (stereo unspecified)
[1]
  Activity: inactive

## CCc1ccc(-n2cc(CCNC3=C(C)C(=O)c4ccccc4C3=O)nn2)cc1
[5]
  IC50: 8.73 µM

## CC1=C(C(c2ccc(Br)cc2)n2cc(CNC3=CC(=O)c4ccccc4C3=O)nn2)C(=O)c2ccccc2C1=O (stereo unspecified)
[1]
  Activity: inactive

## CC(C)=CC1=C(OCc2cn(C(C3=C(C)C(=O)c4ccccc4C3=O)c3ccc(Br)cc3)nn2)C(=O)c2ccccc2C1=O (stereo unspecified)
[1]
  Activity: inactive

## CC(C)=CCC1=C(OCc2cn(C(C3=C(C)C(=O)c4ccccc4C3=O)c3ccc(Cl)cc3)nn2)C(=O)c2ccccc2C1=O (stereo unspecified)
[1]
  Activity: inactive

## CC1=C(Cn2cc(CNC3=CC(=O)c4ccccc4C3=O)nn2)C(=O)c2ccccc2C1=O
[2]
  Activity: Active

## CC1=C(C(c2ccc(F)cc2)n2cc(CNC3=CC(=O)c4ccccc4C3=O)nn2)C(=O)c2ccccc2C1=O (stereo unspecified)
[1]
  Activity: inactive

## O=C1C=C(NCc2cn(-c3ccc(C(F)(F)F)cc3)nn2)C(=O)c2ccccc21
[5]
  IC50: 10.4 µM

## CC1=C(C(c2ccccc2)n2cc(CNC3=CC(=O)c4ccccc4C3=O)nn2)C(=O)c2ccccc2C1=O (stereo unspecified)
[1]
  Activity: inactive

## CC(C)=CCC1=C(OCc2cn(C(C3=C(C)C(=O)c4ccccc4C3=O)c3ccccc3)nn2)C(=O)c2ccccc2C1=O (stereo unspecified)
[2]
  Activity: Active

## CC(C)=CCC1=C(OCc2cn(C(C3=C(C)C(=O)c4ccccc4C3=O)c3ccc(Br)cc3)nn2)C(=O)c2ccccc2C1=O (stereo unspecified)
[1]
  Activity: inactive
